From patent publication US12053441B2, “Formulations for improving the delivery of hydrophobic agents” (THE ROYAL INSTITUTION FOR THE ADVANCEMENT OF LEARNING / …, priority 2018, dated 2024)
≈ marks a conversion by molar mass, not a printed value. Starred links: 1 amine or outer side, 2 acyl side, 3 side chain; linkers in the order of their positions; H or OH if unused. Positions of bridges follow the written chain, without caps; N, C: chain ends. Non-standard residues stand in square brackets, D forms with d. Residues, ends and D or L forms follow the SMILES beside them. *: point of attachment. hTyr(3S-OH,4S-OH,3'-OSO3H) = N[C@H](C(=O)O)[C@H](O)[C@@H](O)c1ccc(O)c(OS(=O)(=O)O)c1; pTerphenylCO(4''-OnC5H11) = CCCCCOc1ccc(-c2ccc(-c3ccc(C(=O)*)cc3)cc2)cc1; Orn(4R-OH,5R-OH) = O=C([C@H](C[C@@H](O)[C@@H](O)N[*:3])N[*:1])[*:2]; hTyr(3S-OH,4S-OH) = N[C@H](C(=O)O)[C@H](O)[C@@H](O)c1ccc(O)cc1; Pro(3S-OH,4S-Me) = C[C@H]1CN[C@H](C(=O)O)[C@H]1O; X2 = CCCCCOc1ccc(-c2cc(-c3ccc(C(=O)*)cc3)no2)cc1; Gln(3R-OH) = NC(=O)C[C@@H](O)[C@H](N)C(=O)O; Hyp = O=C(O)[C@@H]1C[C@@H](O)CN1

Columns and labels:
wildtype MEFs = assay: Cellular UQ10 levels (quinone quantification by HPLC); assay type: cell-based, mouse; settings: for cellular uptake of exogenous UQ10: in combination with UQ10, vs UQ10 alone
Experimental: (§1) Quantification of quinones. Quinone content was detected and quantified by HPLC as previously described. […] After centrifugation for 5 min at 8,000×g, the hexane layer was collected and evaporated in a vacuum centrifuge. The quinone residue was then dissolved in ethanol and stored at −20° C. until HPLC analysis. The HPLC analysis was performed on a reverse phase C18 column (25.0×0.46 cm, 5 μm, Highchrom) using UV detection at 275 nm (Beckman System Gold). The mobile phase was methanol/ethanol (70:30 v/v) and isocratic elution was used at a flow rate of 1.8 ml/min.

[1] = Drop collapse assay (surfactant activity); assay type: physicochemical
Experimental: Drop collapse assay is a simple detection method of surface active agents. It relies on the capacity of surfactants to destabilize the liquid droplets on an oily surface. The drop-collapsing ability of McC1 along with other known potent surfactants was characterized. For each, 40 ul of compound solution in water was pipetted onto a hydrophobic Parafilm surface and the diameter of the drops was measured 1 min later using a ruler.

Mclk1 KO cells = assay: Viability in glucose-free galactose-containing medium (resazurin reduction assay); assay type: cell-based, mouse; settings: sufficiently high dose (FIG. 3A)
Experimental: Tissue culture and viability assays. […] To score growth and viability in galactose, cells were first grown in high glucose DMEM medium to confluency and then switched to glucose-free DMEM media (Thermo Fisher Cat No 26400036) supplemented with 10 mM galactose (Sigma Cat No G5388), 1 mM sodium pyruvate (Thermo Fisher Cat No 11360070), 10% dialyzed FBS (Thermo Fisher Cat No 26400036) and 1% antibiotic-antimycotic solution. Cell viability was determined by resazurin (Sigma Cat No R7017) reduction assay or crystal violet staining following standard procedures.
The screen uses cells lacking UQ (e.g., Mclk1 KO cells) and consists of three key steps: • 1) Day 0: preparation of Mclk1 KO cells in 96-well plates in standard (glucose-containing) culture medium. • 2) Day 1: changing to glucose-free galactose-containing medium and adding compounds to be screened at a concentration of approximately 10 μM. • 3) Day 4 to 6: following 3 to 5 days of incubation with the compound to be screened, media were removed and cell viability was assayed by resazurin reduction assay.
(§2) The resazurin cell viability assay. Briefly, resazurin was added directly to plates at 1/10 the volume of glucose culture medium. Viable cells with active metabolism can reduce resazurin into resorufin which causes a colour change from blue to pink. After a 2 hr incubation, plates were read on a plate reader (Tecan) to record absorbance at 570 nm and 600 nm. The cell viability was scored as a percentage relative to the signal from untreated glucose-grown wells. Consequently, each screened compound may be described by its effect (no, partial or full rescue) on survival of the KO cells in galactose medium.

[2] = cited from earlier work
Pdss2/Mclk1 DKO cells [3] = assay: Viability in glucose-free galactose-containing medium (resazurin reduction assay); assay type: cell-based, mouse
Experimental: Tissue culture and viability assays. […] Cell viability was determined by resazurin (Sigma Cat No R7017) reduction assay or crystal violet staining following standard procedures.
as §2
The screen also uses cells lacking UQ biosynthesis (e.g., DKO cells) and its protocol is essentially the same as the galactose-only screen except that in step 2, a minimal amount of UQ10 is added into the galactose screening media at a concentration at which the added UQ10 is insufficient by itself to support survival.

Pdss2/Mclk1 DKO MEFs = assay: Cellular UQ10 levels (quinone quantification by HPLC); assay type: cell-based, mouse; settings: in combination with UQ10, vs UQ10 alone
Experimental: as §1

[4] = test system: mitochondria of wild-type MEFs; assay: UQ levels in mitochondrial extracts; assay type: cell-based, mouse
Source text: FIGS. 7A to 7D present exemplary data showing that McC1 is capable of increasing the uptake of exogenous UQ into cells and mitochondria. (A) Bar chart showing change of UQ10 levels (as measured in ng/μg of protein) in Pdss2/Mclk1 DKO MEFs after treatment with UQ10, McC1 alone, or UQ10 and McC1 in combination. **p<0.01, ***p<0.001 (one-way ANOVA). (B) Bar charts presenting exemplary data showing changes of UQ levels in wildtype MEFs after treatment with UQ10, McC1 alone, or both in combination. Results are shown as cellular UQ10 levels (as provided in ng/μg of protein, left panel) or UQ9 levels (as provided in ng/μg of protein, right panel) in untreated cells, after treatment with 12.5 μM of McC1, after treatment with 2.5 μM of UQ10, or after co-treatment UQ10 and McC1. Results are mean±SEM (n=3). ****p<0.0001 (one-way ANOVA). (C) Bar chart presenting exemplary data showing changes of UQ10 and UQ9 levels in mitochondrial extracts from wildtype MEFs after treatment with UQ10 alone, or in combination with McC1. Results are shown as UQ9 and UQ10 levels in ng/μg of protein. Results are mean±SEM (n=3). ****p<0.0001 (student's t-test). (D) Bar chart presenting exemplary data showing changes of UQ10 level in mitochondrial extracts from Pdss2/Mclk1 DKO MEFs after treatment with UQ10 alone, or in combination with McC1. Results are shown as UQ10 levels (as provided in ng/μg of protein) in untreated DKO cells, after treatment with 2.5 μM of UQ10, or after co-treatment 2.5 μM of UQ10 and 12.5 μM of McC1. ND: Not Detectable. Results are mean±SEM (n=3). ****p<0.0001 (one-way ANOVA).
as §1

Pdss2/Mclk1 DKO cells [5] = assay: Oxygen consumption rate (OCR) by Seahorse XF analyzer; assay type: cell-based, mouse; settings: co-treatment with UQ10
Experimental: Measurement of oxygen consumption by Seaborse XF analyzer. Cells were seeded in XF v7 24-well plates (Seahorse Bioscience) at ˜40,000 cells/well for 24 hr. Prior to the measurements, cell medium was replaced with Seahorse XF base medium supplemented with 5.5 mM glucose (Sigma Cat No G8769), 2 mM Glutamax (Thermo Fisher Cat No 35050061) and 1 mM sodium pyruvate and allowed to equilibrate for 1 hour at 37° C. Oxygen consumption was measured first under baseline condition, followed by subsequent addition of 1 μg/ml oligomycin (Sigma Cat No 04876), 0.8 μM FCCP (Sigma Cat No C2920) and a combination of 1 μM rotenone (Sigma Cat No R8875) and 5 μM antimycin A (Sigma Cat No A8674) to assess the basal and maximal mitochondrial respiration rates. Four baseline measurements were recorded before the consecutive addition of the above-mentioned compounds, and three response measurements were taken after the addition of each compound. Results were finally normalized to protein content determined using the Bradford reagent (Bio-Rad). For experiments that involved culturing cells in the presence of lipoprotein-deficient serum (LPDS), cells were grown in culture medium supplemented with LPDS (Sigma S5394) for 1 week before OCR was measured using a Seahorse XF-24 extracellular flux analyzer as described above.

[6] = Experimental: Solubilization studies. In order to link the surfactant properties of McC1 and its stimulating impact on UQ10 uptake, the solubilization characteristics of McC1 on UQ10 have been determined. First, solubilization test was performed by overnight shaking of a mixture of UQ10 and McC1 in water.
Additional solubilization tests were performed using sonication. Excess amount of UQ10 was mixed with McC1 by sonication for 2 min in water.
Like caspofungin/McC1, surfactin is a cyclic lipopeptide. It is produced from various strains of Bacillus subtilis. Structurally it consists of a peptide chain formed by seven amino acids linked to a β-hydroxyl fatty acid via a lactone bond. It is known for its exceptional surfactant power. […] Then, solubilization test was performed by overnight shaking of a mixture of UQ10 and surfactin in water. The mixture were subjected to brief centrifugation to separate undissolved UQ10 before absorbance of the resultant clear supernatant at 275 nm was measured spectrophotometrically.
Several other surfactants were tested for their ability to solubilize UQ. Briefly, excess amount of UQ10 was mixed with water solution of the tested surfactants using sonication. The resultant suspensions were then filtered through a 0.45 μm syringe filter to remove undissolved UQ10.

CCCCCOc1ccc(-c2cc(-c3ccc(C(=O)N[C@H]4C[C@@H](O)[C@@H](O)NC(=O)[C@@H]5[C@@H](O)[C@@H](C)CN5C(=O)[C@H]([C@H](O)CC(N)=O)NC(=O)[C@H]([C@H](O)[C@@H](O)c5ccc(O)c(OS(=O)(=O)O)c5)NC(=O)[C@@H]5C[C@@H](O)CN5C(=O)[C@H]([C@@H](C)O)NC4=O)cc3)no2)cc1 [MFG, Micafungin] (X2-[Orn(4R-OH,5R-OH)]T[Hyp][hTyr(3S-OH,4S-OH,3'-OSO3H)][Gln(3R-OH)][Pro(3S-OH,4S-Me)]; lactam 1-C)
cellular uptake of exogenous UQ10 (wildtype MEFs): did not further increase the level of UQ10
surfactant (drop collapse) activity [1]: no drop collapse activity

O=C(O)c1ccc(O)cc1O [2,4-DHB, 2,4-dihydroxybenzoic acid]
survival of Mclk1 KO cells in galactose-containing media (Mclk1 KO cells): allows them to survive in galactose-containing media

CCCCCOc1ccc(-c2ccc(-c3ccc(C(=O)N[C@H]4C[C@@H](O)[C@@H](O)NC(=O)[C@@H]5[C@@H](O)[C@@H](C)CN5C(=O)[C@H]([C@@H](C)O)NC(=O)[C@H]([C@H](O)[C@@H](O)c5ccc(O)cc5)NC(=O)[C@@H]5C[C@@H](O)CN5C(=O)[C@H]([C@@H](C)O)NC4=O)cc3)cc2)cc1 [AFG, Anidulafungin] ({pTerphenylCO(4''-OnC5H11)}-[Orn(4R-OH,5R-OH)]T[Hyp][hTyr(3S-OH,4S-OH)]T[Pro(3S-OH,4S-Me)]; lactam 1-C)
cellular uptake of exogenous UQ10 (wildtype MEFs): did not further increase the level of UQ10
surfactant (drop collapse) activity [1]: no drop collapse activity

CCCC1O[C@@H]2C[C@H]3[C@@H]4CCC5=CC(=O)C=C[C@]5(C)[C@H]4[C@@H](O)C[C@]3(C)[C@]2(C(=O)CO)O1 (stereo partly drawn) [budesonide]
solubility in water [2]: 10.7 mg/1

CC(C)CCCCCCCCC[C@@H]1CC(=O)N[C@@H](CCC(=O)O)C(=O)N[C@@H](CC(C)C)C(=O)N[C@H](CC(C)C)C(=O)N[C@@H](C(C)C)C(=O)N[C@@H](CC(=O)O)C(=O)N[C@H](CC(C)C)C(=O)N[C@@H](CC(C)C)C(=O)O1 [surfactin] (HELM PEPTIDE1{E.L.[dL].V.D.[dL].L}|CHEM1{[CC(C)CCCCCCCCC[C@H](CC(=O)[*:1])O[*:2]]}$PEPTIDE1,CHEM1,1:R1-1:R1|PEPTIDE1,CHEM1,7:R2-1:R2$$$V2.0)
viability rescue of DKO cells (Pdss2/Mclk1 DKO cells [3]; 10 μM surfactin with a small amount of UQ10 (FIG. 17D)): full viability rescue
survival of DKO cells in galactose medium (Pdss2/Mclk1 DKO cells [3]; compound by itself, no UQ10 added): no effect
cellular uptake of exogenous UQ10 (Pdss2/Mclk1 DKO MEFs): improves UQ10 uptake into cells
surfactant (drop collapse) activity [1]: potent surfactant activity
UQ uptake into mitochondria compared to McC1 ([4]; FIG. 17C right panel): less stimulating action on UQ uptake into mitochondria
uptake of exogenous UQ10 into mitochondria ([4]; in combination with UQ10, vs UQ10 alone): augmented uptake of UQ into mitochondria
mitochondrial respiration (OCR) compared with UQ10 treatment alone (Pdss2/Mclk1 DKO cells [5]): Higher respiration rates
solubilization power for UQ compared to McC1 [6]: lower solubilization power than McC1
water solubility of UQ10 in the presence of the compound [6]: increased

lipopeptide detergent-12 [LPD-12]
solubilization of UQ10 in water by the compound [6]: increases the water solubilization of UQ10

CC(=O)O[C@@]12CO[C@@H]1C[C@H](O)[C@@]1(C)C(=O)[C@H](O)C3=C(C)[C@@H](OC(=O)[C@H](O)[C@@H](NC(=O)OC(C)(C)C)c4ccccc4)C[C@@](O)([C@@H](OC(=O)c4ccccc4)[C@H]21)C3(C)C [docetaxel]
solubility in water [2]: 4.93 µg/mL (≈ 6.1 µM)

O=C(O)c1ccccc1Nc1cccc(C(F)(F)F)c1 [flufenamic acid]
solubility in water [2]: 9.09 µg/mL (≈ 32.3 µM)

Nc1nc2c(ncn2COCCO)c(=O)[nH]1 [acyclovir]
solubility in water [2]: < 2500 µg/mL

Saponins
solubilization of UQ10 in water by the compound [6]: improve the water solubility of UQ10

COc1cc([C@@H]2c3cc4c(cc3[C@@H](O[C@@H]3O[C@@H]5CO[C@@H](c6cccs6)O[C@H]5[C@H](O)[C@H]3O)[C@H]3COC(=O)[C@H]23)OCO4)cc(OC)c1O [teniposide]
solubility in water [2]: 59.8 µg/mL (≈ 91.1 µM)

O=c1cc(-c2ccc(O)c(O)c2)oc2cc(O)cc(O)c12 [luteolin]
solubility in water [2]: 5.72 µg/mL (≈ 20 µM)

COC1=C(OC)C(=O)C(C/C=C(\C)CC/C=C(\C)CC/C=C(\C)CC/C=C(\C)CC/C=C(\C)CC/C=C(\C)CC/C=C(\C)CC/C=C(\C)CCC=C(C)C)=C(C)C1=O [UQ9, ubiquinone-9]
rescue from galactose-induced cell death by UQ supplementation (Pdss2/Mclk1 DKO cells [3]; if provided at a sufficient amount): sufficient to rescue them from galactose-induced cell death

CCCCCCCC/C=C\CCCCCCCC(=O)ON1C(=O)CC(S(=O)(=O)O)C1=O (stereo not drawn) [SSO, sulfo-N-succinimidyl oleate]
effect on cellular uptake of UQ10 (wildtype MEFs; cells treated with UQ10 or UQ10 combined with McC1 (FIG. 8)): inhibits cellular uptake of UQ10
